Reference: patent US9193729B2, “Inhibiting transient receptor potential ion channel TRPA1” (Cubist Pharmaceuticals, Inc., priority 2011, dated 2015)

Assays:
dTRPA1 = dTRPA1 (Canis lupus familiaris, UniProt A0A8I3Q1Q7); experiment: Whole-cell patch clamp inhibition of dTRPA1; assay type: cell-based, Dog; conditions: dTRPA1, 10 micromolar AITC activation; read-out: IC50 Inward current
Description: (§1) Data for TRPA1 inhibition and the selectivity of TRPA1 inhibition was obtained by this method for the compound of Formula (Ia) and included in Table 1 and Table 2. All currents were recorded in whole-cell configuration using EPC-9 and EPC-10 amplifiers and Patchmaster software (HEKA). […] The standard pipette solution consisted of 140 mM CsAsp, 10 mM EGTA, 10 mM HEPES, 2.27 mM MgCl2, 1.91 mM CaCl2, 4 mM MgATP, and 0.1-0.3 mM Na2GTP, with pH adjusted to 7.2 with CsOH. In addition, a solution containing 145 mM CsCl, 10 mM HEPES, 10 mM EGTA and 1 mM MgCl2 (pH 7.2 adjusted with CsOH) can be used. The standard bath solution contained 150 mM NaCl, 10 mM HEPES, 10 mM glucose, 4.5 mM KCl, 1 mM EGTA, 3 mM MgCl2, with pH adjusted to 7.4 with NaOH. In some instances, 2 mM CaCl2 was added in place of EGTA and the concentration of MgCl2 was reduced to 1 mM.
(§2) Data were collected either by continuous recordings at −60 mV or by applying voltage ramps from a holding potential of 0 mV every 4 s. […] Inward and outward currents were analyzed from the ramps at −80 and 80 mV, respectively. […]
(§3) Solutions were switched using a gravity-fed continuous focal perfusion system. […] Temperatures were confirmed using a thermistor (Warner Instruments, TA-29), with temperatures at the recorded cell estimated to be within +/−2° C. of those reported. […]

healthy male volunteers = experiment: Single ascending dose Phase 1A study; assay type: in vivo, human; conditions: 6 ascending single doses, placebo-controlled
Text: A randomized, double-blind, placebo-controlled, cross-over, single dose, safety, tolerability and pharmacokinetic study of 6 ascending doses of the compound of Formula (Ia) was undertaken in two cohorts of healthy male volunteers. A total of eighteen eligible healthy mail volunteers were recruited utilizing an alternating panel design. The first cohort of nine subjects (Cohort 1) was sequentially enrolled into 3 of 6 dosing periods (Dose Levels 1, 3, and 5). The remaining cohort of nine subjects (Cohort 2) was enrolled in the other 3 dosing periods (Dose Levels 2, 4, and 6). Within each dosing period, subjects were randomly assigned 2:1 to the compound of Formula (I) (n=6) or placebo (n=3). Each subject received one dose of placebo and two different doses of the compound of Formula (I) over the course of their participation in all three dosing periods. Subjects were equally randomized to one of 3 possible sequences, namely 1) placebo, active, active, 2) active, placebo, active, and 3) active, active, placebo.

hTRPV6 = molecular target: T1, hTRPV6 (Homo sapiens, UniProt Q9H1D0); experiment: Patch clamp selectivity, hTRPV6; assay type: cell-based; conditions: hTRPV6 vs TRPA1
T1 sequence (Q9H1D0 1-765): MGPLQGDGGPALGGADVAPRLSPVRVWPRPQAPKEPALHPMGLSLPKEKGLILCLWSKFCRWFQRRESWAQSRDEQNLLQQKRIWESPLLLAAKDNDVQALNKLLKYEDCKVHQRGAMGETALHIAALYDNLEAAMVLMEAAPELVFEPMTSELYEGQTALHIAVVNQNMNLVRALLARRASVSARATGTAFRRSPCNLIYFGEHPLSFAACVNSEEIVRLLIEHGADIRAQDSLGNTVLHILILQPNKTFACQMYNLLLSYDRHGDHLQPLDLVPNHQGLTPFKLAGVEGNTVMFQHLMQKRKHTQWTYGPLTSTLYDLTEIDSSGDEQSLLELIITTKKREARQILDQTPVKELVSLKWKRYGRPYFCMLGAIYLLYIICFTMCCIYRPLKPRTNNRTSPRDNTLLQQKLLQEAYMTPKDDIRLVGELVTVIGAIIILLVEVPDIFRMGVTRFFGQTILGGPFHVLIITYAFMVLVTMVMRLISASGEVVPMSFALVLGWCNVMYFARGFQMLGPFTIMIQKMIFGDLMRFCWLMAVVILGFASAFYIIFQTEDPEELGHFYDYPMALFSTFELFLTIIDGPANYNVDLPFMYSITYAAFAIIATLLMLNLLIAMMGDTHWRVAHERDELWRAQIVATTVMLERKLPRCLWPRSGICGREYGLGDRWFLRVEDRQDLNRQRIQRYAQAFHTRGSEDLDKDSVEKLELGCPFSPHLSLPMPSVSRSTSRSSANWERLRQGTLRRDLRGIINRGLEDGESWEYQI
Description: as §1, §2, §3

hTRPV1 = hTRPV1 (Homo sapiens, UniProt Q8NER1); experiment: Patch clamp selectivity, hTRPV1; assay type: cell-based; conditions: hTRPV1 vs TRPA1
Sequence of hTRPV1 (Q8NER1 whole entry): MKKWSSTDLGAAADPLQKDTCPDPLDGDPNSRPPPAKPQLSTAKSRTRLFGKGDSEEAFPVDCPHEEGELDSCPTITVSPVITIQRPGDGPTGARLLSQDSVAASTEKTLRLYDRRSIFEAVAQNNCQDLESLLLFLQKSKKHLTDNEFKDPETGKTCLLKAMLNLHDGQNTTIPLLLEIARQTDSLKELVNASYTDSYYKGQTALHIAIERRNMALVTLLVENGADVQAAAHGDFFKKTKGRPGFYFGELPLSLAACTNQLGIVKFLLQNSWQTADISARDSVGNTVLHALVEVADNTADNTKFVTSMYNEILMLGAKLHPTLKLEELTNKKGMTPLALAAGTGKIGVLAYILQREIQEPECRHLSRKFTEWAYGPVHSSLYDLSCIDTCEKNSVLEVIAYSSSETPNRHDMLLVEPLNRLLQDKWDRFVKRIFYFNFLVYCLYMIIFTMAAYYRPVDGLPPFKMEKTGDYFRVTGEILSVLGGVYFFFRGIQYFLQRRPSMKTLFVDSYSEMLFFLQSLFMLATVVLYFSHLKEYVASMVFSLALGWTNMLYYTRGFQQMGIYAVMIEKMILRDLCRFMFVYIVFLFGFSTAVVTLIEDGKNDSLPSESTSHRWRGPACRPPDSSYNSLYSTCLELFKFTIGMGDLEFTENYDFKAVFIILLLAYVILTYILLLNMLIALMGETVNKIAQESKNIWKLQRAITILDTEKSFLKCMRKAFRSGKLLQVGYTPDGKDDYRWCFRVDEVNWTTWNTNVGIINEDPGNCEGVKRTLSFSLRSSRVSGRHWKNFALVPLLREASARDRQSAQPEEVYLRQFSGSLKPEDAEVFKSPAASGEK
Description: as §1, §2, §3

[1] = test system: formalin-induced pain behavior; experiment: Formalin-induced pain behavior in vivo rodent model; design: species or system rat; conditions: i.p. administration, in words
Text: The data shown in Tables 3a, 3b, and 3c and FIG. 2 were obtained by administering a pharmaceutical composition comprising the compound of Formula (Ia) to rodents in the formalin-induced pain duration at various doses according to Example 5. Specifically, the data in Tables 3a, 3b, and 3c and FIG. 2 were obtained by intraperitoneal (i.p.) administration of compositions containing different concentrations of the compound of Formula (Ia), a comparator composition containing recited amounts of the comparator compound (e.g., 150 mg/kg of the comparator compound of Formula (II) in Table 3a) and a control composition containing the vehicle (e.g., without the compound of Formula (Ia) or a comparator compound).
The compound of Formula (Ia) and the comparator compounds of Formula (II) and Formula (III) were tested in the formalin-induced pain test reported by Dubuisson et al., Pain 1977 December; 4(2):161-74 (incorporated herein by reference in its entirety). Dubuisson et al. (1977) describe a method for assessing pain and analgesia in rats and cats. Briefly, dilute formalin (50 μL of 3% formalin) is injected into the plantar surface of the hind paw. […] The individual responsible for counting the pain behaviors in a particular study is blinded to the treatment groups.
Rats were treated with the HCl salt of Compound (Ia) at various doses (3, 10, 30, and 50 mg/kg, IP) or with the vehicle (IP).

Sequence of dTRPA1 (A0A8I3Q1Q7 1-1118): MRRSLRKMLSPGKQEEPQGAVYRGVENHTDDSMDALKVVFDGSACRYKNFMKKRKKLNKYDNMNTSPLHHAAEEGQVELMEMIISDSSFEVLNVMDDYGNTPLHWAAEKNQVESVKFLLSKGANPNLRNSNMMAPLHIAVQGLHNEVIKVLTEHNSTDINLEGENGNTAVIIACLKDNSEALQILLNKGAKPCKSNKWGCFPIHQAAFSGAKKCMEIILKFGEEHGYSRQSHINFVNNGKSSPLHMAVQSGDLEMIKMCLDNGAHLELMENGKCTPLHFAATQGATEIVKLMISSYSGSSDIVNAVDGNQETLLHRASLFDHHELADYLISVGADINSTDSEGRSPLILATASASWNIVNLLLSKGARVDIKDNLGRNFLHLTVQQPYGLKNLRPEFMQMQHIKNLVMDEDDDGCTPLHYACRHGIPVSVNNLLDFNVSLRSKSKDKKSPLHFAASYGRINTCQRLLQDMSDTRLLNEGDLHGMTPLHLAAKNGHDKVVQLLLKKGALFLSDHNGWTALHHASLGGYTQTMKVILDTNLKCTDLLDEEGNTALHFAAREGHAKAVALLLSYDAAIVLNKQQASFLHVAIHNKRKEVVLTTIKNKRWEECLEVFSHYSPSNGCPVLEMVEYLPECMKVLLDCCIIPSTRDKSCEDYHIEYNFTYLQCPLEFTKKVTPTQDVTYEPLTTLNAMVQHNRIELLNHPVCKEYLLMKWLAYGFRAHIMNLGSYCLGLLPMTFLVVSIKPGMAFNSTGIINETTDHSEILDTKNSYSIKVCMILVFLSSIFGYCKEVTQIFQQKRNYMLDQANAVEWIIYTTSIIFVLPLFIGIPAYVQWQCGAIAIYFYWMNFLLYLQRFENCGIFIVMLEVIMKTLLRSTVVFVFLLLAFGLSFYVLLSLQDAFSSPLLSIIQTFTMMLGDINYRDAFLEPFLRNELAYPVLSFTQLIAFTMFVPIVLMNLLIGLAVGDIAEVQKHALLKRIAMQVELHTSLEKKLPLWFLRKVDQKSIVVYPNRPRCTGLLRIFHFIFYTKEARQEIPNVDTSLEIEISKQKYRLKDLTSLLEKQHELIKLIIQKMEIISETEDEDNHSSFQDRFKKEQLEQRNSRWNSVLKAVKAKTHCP

C[C@H]1CCCN1c1ncc(-c2cccc(NC(=O)Cn3cnc4c3c(=O)n(C)c(=O)n4C)n2)cn1 [Formula (Ia)]
IC50 (dTRPA1): ~100 nM
safety signals (healthy male volunteers): no safety signals seen that were attributable to the compound
Fold Selectivity Compared to TRPA1 (hTRPV6): ~370 Fold
Fold Selectivity Compared to TRPA1 (hTRPV1): >100 Fold
duration of pain behavior compared with vehicle [1]: shorter durations of pain behavior than those treated with the vehicle
